Residues, ends and D or L forms follow the SMILES beside them. *: point of attachment. Palmitoyl = CCCCCCCCCCCCCCCC(=O)*
What was measured:
[1] = Evaluation of solubility of N-palmitoyl-Gly-His with each additive (heating and stirring at 80° C., open system, visual inspection); assay type: physicochemical; settings: 0.05% or greater acetic acid, sodium acetate or phosphoric acid, 0.1% disodium hydrogen phosphate or trisodium citrate, 0.5% citric, succinic, tartaric, lactic acid or their sodium salts, 1.0% trimellitic acid or trisodium trimellitate
Protocol: Next, heating and stirring were performed, with a cap of the screw bottle being open (that is, an open system), in a water bath (NWB-180N, manufactured by Nissinrika K. K.) for 60 minutes at a maximum until a transparent dispersion state was confirmed at 80° C. […] Next, heating and stirring were performed, with a cap of the screw bottle being open, in a water bath (NWB-180N, manufactured by Nissinrika K. K.) for 60 minutes at 80° C.
Next, heating and stirring were performed, with a cap of the screw bottle being open, in a water bath (NWB-180N, manufactured by Nissinrika K. K.) for 60 minutes at a maximum until a transparent dispersion state was confirmed at 80° C.

[2] = Evaluation of hydrogelation ability (overnight cooling at room temperature, inversion of the bottle); assay type: physicochemical; settings: same additive amounts as; after stirring at 80° C. in an open system
From the text: Next, the solution was allowed to cool at room temperature overnight.

CCCCCCCCCCCCCCCC(=O)NCC(=O)N[C@@H](Cc1c[nH]cn1)C(=O)O [N-palmitoyl-Gly-His] (Palmitoyl-Gly-His-OH)
dissolution in water (summary of Examples 1 to 14, in words) [1]: could be easily dissolved in water | hydrogel formation (summary of Examples 1 to 14, in words) [2]: a hydrogel could be obtained

Source: patent US9328137B2, “Hydrogel-forming material” (NISSAN CHEMICAL INDUSTRIES, LTD., priority 2011, dated 2016)
